Measurements taken from ChEMBL document CHEMBL3856191, “Structural modifications at the 6-position of thieno[2,3-d]pyrimidines and their effects on potency at FLT3 for treatment of acute myeloid leukemia” (Eur J Med Chem, 2016).

Assays:
[1] = molecular target: Platelet-derived growth factor receptor beta (Homo sapiens) (UniProt P09619); assay: Inhibition of recombinant human PDGFR-beta expressed in insect Sf21 cells assessed as remaining activity at 10 uM preincubated for 15 mins followed by poly(Glu:Tyr) substrate addition for 30 mins in presence of [gamma-32P]ATP by […] assay
Chain of Platelet-derived growth factor receptor beta (Homo sapiens) (P09619 whole entry): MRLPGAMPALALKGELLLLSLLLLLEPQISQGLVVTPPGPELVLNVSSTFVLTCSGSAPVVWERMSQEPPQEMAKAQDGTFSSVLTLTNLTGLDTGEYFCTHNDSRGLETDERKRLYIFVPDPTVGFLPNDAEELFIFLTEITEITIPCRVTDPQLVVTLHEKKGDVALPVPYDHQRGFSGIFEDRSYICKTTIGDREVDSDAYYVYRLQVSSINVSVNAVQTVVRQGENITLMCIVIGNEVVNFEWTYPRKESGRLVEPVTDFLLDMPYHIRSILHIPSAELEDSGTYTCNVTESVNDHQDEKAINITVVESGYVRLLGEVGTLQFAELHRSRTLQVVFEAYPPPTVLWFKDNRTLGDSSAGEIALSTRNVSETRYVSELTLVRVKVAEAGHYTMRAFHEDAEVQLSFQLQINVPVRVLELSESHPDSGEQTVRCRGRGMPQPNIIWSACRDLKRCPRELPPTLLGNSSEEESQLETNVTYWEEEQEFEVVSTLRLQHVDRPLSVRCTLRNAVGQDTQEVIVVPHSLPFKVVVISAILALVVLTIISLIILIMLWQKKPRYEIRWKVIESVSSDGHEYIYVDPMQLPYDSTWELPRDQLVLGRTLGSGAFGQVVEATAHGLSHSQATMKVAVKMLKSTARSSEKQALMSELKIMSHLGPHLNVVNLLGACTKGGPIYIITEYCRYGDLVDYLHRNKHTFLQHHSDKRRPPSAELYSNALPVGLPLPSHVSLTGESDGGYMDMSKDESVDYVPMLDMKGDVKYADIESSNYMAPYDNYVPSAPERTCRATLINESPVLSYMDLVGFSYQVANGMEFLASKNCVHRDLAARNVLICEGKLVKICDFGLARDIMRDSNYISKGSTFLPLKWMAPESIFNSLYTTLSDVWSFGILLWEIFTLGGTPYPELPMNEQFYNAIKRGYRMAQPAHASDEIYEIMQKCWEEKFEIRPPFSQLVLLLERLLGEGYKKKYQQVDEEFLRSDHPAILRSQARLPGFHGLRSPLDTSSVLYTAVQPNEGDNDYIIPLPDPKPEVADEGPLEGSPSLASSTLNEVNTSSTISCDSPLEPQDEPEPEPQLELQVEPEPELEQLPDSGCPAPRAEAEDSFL

[2] = molecular target: Tyrosine-protein kinase receptor UFO (Homo sapiens) (UniProt P30530); assay: Inhibition of recombinant human AXL expressed in insect Sf21 cells assessed as remaining activity at 10 uM preincubated for 15 mins followed by poly(Glu:Tyr) substrate addition for 30 mins in presence of [gamma-32P]ATP by […] assay
Chain of Tyrosine-protein kinase receptor UFO (Homo sapiens) (P30530 whole entry): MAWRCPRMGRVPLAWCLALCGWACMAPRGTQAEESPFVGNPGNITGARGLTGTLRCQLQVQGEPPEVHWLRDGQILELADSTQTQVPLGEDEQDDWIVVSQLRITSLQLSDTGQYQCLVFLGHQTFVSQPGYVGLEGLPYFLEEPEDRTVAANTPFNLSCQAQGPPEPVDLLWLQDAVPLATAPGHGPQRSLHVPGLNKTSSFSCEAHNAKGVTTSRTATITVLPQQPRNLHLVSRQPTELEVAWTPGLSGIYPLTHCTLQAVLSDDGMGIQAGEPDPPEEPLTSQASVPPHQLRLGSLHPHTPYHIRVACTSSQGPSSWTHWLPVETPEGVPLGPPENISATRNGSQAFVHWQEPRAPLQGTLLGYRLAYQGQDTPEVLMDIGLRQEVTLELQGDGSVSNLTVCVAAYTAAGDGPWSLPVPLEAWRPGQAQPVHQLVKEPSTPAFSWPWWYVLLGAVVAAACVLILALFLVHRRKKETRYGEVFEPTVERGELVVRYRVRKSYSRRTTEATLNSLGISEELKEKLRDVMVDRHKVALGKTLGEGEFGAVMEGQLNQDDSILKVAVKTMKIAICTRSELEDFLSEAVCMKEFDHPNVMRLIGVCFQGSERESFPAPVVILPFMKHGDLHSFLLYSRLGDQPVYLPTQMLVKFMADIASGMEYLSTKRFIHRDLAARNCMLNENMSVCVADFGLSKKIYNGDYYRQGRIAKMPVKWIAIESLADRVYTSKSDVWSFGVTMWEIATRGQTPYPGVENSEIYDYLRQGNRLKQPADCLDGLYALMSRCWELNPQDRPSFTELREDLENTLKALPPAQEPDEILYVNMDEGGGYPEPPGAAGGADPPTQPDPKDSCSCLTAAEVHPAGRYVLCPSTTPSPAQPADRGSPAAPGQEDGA

[3] = molecular target: Mitogen-activated protein kinase 9 (Homo sapiens) (UniProt P45984); assay: Inhibition of recombinant human JNK2alpha2 expressed in insect Sf21 cells assessed as remaining activity at 10 uM preincubated for 15 mins followed by ATF2 substrate addition for 30 mins in presence of [gamma-32P]ATP by […] assay
Chain of Mitogen-activated protein kinase 9 (Homo sapiens) (P45984 whole entry, looked up): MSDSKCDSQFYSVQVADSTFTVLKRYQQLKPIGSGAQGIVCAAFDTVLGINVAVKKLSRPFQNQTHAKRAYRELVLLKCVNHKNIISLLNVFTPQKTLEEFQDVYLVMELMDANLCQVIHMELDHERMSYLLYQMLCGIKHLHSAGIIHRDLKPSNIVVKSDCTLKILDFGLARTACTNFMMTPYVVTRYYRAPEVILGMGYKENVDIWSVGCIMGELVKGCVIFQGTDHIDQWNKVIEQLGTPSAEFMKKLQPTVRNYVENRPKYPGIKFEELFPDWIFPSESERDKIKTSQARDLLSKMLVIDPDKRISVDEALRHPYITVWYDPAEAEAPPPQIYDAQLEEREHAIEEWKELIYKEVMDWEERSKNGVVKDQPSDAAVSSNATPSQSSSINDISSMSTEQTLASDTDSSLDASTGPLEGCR

In the case of CNCCOc1ccc(-c2sc3nc(-c4cccs4)nc(NN4C(=O)C=C(C)C4=O)c3c2C)cc1.Cl, the Activity [1] is reported as 88%, the Activity [2] is reported as 44% and the Activity [3] is reported as 113%.
